The results in this text go back to patent US20240246941A1, “SUBSTITUTED 4-(3-AMINOPROP-1-YL)AMINOQUINOLINE ANALOGS AS MODULATORS OF MELANOMA-ASSOCIATED ANTIGEN 11 UBIQUITIN LIGASE” (ST. JUDE CHILDREN'S RESEARCH HOSPITAL, INC., priority 2020, published 2024).

The assay addresses MAGE-A11:PCF11 (Homo sapiens (Human), UniProt P43364). Nature of the assay: TR-FRET single point screening at 15 μM. The format is binding. More on the design: unit not given here. The text has this:
TR-FRET Assays and High-throughput Screen. Terbium-anti-GST antibody, 1 M Tris pH 7.5 1 M MgCl2 and 1 M DTT were purchased from Invitrogen (Carlsbad, CA), BSA was purchased from Sigma (St. Louis, MO). Dimethyl sulfoxide (DMSO) was purchased from Fisher Scientific (Pittsburgh, PA). Black 384-well low volume plates and 384-well polypropylene compound plates were purchased from Corning Incorporated (Tewksbury, MA). The St. Jude FDA drug and Bioactive library (11,293 chemicals), Drug-like library (10,073 chemicals) and Lead-like library (10,041 chemicals) were custom assembled and purchased from commercial sources including Sigma, Microsource (Gaylordsville, CT), selleckchem (Houston, TX), ChemDiv (San Diego, CA), ChemBridge (San Diego, CA), Enamine (Monmouth Jct., NJ), and Life Chemicals (Niagara-on-the-Lake, ON, Canada). They were arrayed (10 mM in DMSO) in 384-well polypropylene compound plates with columns 1, 2, 13 and 14 empty which were reserved for controls.
The TR-FRET assay buffer with a formula of 50 mM Tris pH 7.5, 20 mM MgCl2, 0.1 mg/ml BSA and 1 mM DTT was freshly prepared before each experiment. All TR-FRET assays were performed in black 384-well plates with 20 μl/well assay volume in the TR-FRET assay buffer at room temperature (approximately 25° C.). All peptides or compounds were solubilized in DMSO. To test the competitive activity of peptides or compounds against the interaction between GST-MAGEA11 MHD and FAM-PCF11_4 peptide, 10 μl/well peptide or compound at specified concentration was dispensed into a black 384-well low volume plate, followed by 5 μl/well FAM-PCF11_4 (800 nM), 5 μl/well Tb-anti-GST (20 nM) and GST-MAGEA11 MHD (20 nM). The assay components in each well was then mixed by shaking the plate on an IKA MTS 2/4 digital microtiter plate shaker (IKA Works; Wilmington, NC, USA) at 900 RPM for 1 minute. The plate was further centrifuged in an Eppendorf 5810 centrifuge with an A-4-62 swing-bucket rotor (Eppendorf AG, Hamburg, Germany) at 201 g (1000 rpm) for 30 seconds. The plate was then incubated for 90 min with a lid to avoid light exposure to the assay components. After incubation, the fluorescent emission signals at 520 nm and 490 nm channels of individual wells were measured with a PHERAstar FS plate reader (BMG Labtech; Durham, NC, USA) by using a 340 nm excitation filter, 100 μs delay time, and 200 μs integration time. The TR-FRET fluorescence emission ratio (TR-FRET signal) for each well was presented as 10 000×520 nm/490 nm, which was used directly for curve fitting, or further converted to % Inhibition based on the respective positive and negative controls. The graphic software GraphPad Prism 4.81 (GraphPad Software; La Jolla, CA, USA) was used to generate curves and derive IC50 values of tested peptides or compounds, if applicable.
TR-FRET screen for identifying MAGEA11 small molecule inhibitors was performed as follows. The primary one-concentration screening and subsequent 10 or 20-concentration dose response tests were accomplished with an automated High Throughput Screening system (HighRes Biosolutions, Beverly, MA)^30. In the primary screening, 15 μl/well FAM-PCF11_4 (267 nM) was first dispensed with a Multidrop Combi Reagent Dispenser (Thermo Fisher Scientific, Waltham, MA) to black 384-well low volume assay plates. The plates were spun down with a Velocity11 VSpin microplate centrifuge (Agilent Technologies, Santa Clara, CA). 30 nl/well of 10 mM compound/DMSO solutions, or DMSO alone, were transferred from compound plates (the St. Jude FDA drug and bioactive library, Drug-like library and Lead-like library) or a control plate to the assay plates with a Pin Tool (V&P Scientific, San Diego, CA). The compounds were arrayed in columns 3 to 12 and columns 15 to 24 of compound plates. The controls were arrayed in columns 1, 2, 13 and 14 of a compound plate. […]

[1] abbreviates: single point TR-FRET screening at 15 μM against MAGE-A11:PCF11.
Where [2] appears, read: single point TR-FRET screening of quinoline compounds against MAGE-A11:PCF11, 15 μM.

Chain of MAGE-A11:PCF11 (P43364 218-429): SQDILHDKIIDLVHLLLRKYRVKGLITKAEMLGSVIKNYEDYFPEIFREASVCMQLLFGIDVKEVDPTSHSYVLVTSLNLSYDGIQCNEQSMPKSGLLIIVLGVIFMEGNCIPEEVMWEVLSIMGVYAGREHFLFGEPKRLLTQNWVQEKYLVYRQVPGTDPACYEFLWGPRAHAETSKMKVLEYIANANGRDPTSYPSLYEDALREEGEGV

For the compound `Cc1cccc(N2CCN(c3c(S(=O)(=O)c4ccccc4)cnc4ccccc34)CC2)c1C` [SJ000117081], under setting [1], the TR-FRET signal was −13.13.

In the case of `COc1ccc2ncc(S(=O)(=O)c3ccccc3)c(N3CCN(c4cccc(C)c4C)CC3)c2c1` [SJ000117082], the TR-FRET signal under setting [1] is −241.8.

In turn, `Cc1ccc(C)c(N2CCN(c3c(S(=O)(=O)c4ccccc4)cnc4ccc(F)cc34)CC2)c1` [SJ000117083] gave a TR-FRET signal under setting [1] of −15.38.

Compound `Cc1ccc(S(=O)(=O)c2cnc3ccccc3c2N2CCN(c3cc(C)ccc3C)CC2)cc1` [SJ000117084] showed a TR-FRET signal under setting [1] of 2.443.

`COc1ccc2ncc(S(=O)(=O)c3ccc(C)cc3)c(N3CCN(Cc4ccccc4)CC3)c2c1` [SJ000117085]: the TR-FRET signal under setting [1] is −82.22.

On to `CCc1ccc(S(=O)(=O)c2cnc3ccccc3c2N2CCN(Cc3ccccc3)CC2)cc1` [SJ000117086], for which the TR-FRET signal under setting [1] is −55.26.

Compound `CCOC(=O)c1cnc2ccc(OC)cc2c1NCCCN1CCOCC1` [SJ000127046] displayed a TR-FRET signal under setting [2] of 2.945.

For the compound `CCOC(=O)c1cnc2ccc(C(=O)OC)cc2c1NCCN1CCOCC1` [SJ000127079], the TR-FRET signal under setting [1] is listed as −7.813.

Regarding `CCOC(=O)c1cnc2c(C)cc(Cl)cc2c1NCCN1CCOCC1` [SJ000129560], the TR-FRET signal under setting [1] is given as 4.96.

As to `CCOC(=O)c1cnc2c(C)c(Cl)ccc2c1NCCCN1CCOCC1` [SJ000129912], the TR-FRET signal under setting [2] is on record as −23.26.

In the case of `CCOC(=O)c1cnc2c(C(F)(F)F)cccc2c1NCCCN1CCOCC1` [SJ000131358], under setting [2], the TR-FRET signal was 10.06.

The compound `CCOC(=O)c1cnc2c(C)c(C)ccc2c1NCCN(C)C` [SJ000134078] gave a TR-FRET signal under setting [1] of 8.538.

Under setting [1], `CCOC(=O)c1cnc2c(Cl)cccc2c1NCCN1CCOCC1` [SJ000163436] registered a TR-FRET signal of −6.529.

Compound `CCOC(=O)c1cnc2c(C)cc(C)cc2c1NCCN1CCOCC1` [SJ000172983] gave a TR-FRET signal under setting [1] of 8.869.

Compound `CCOC(=O)c1cnc2c(C)cc(C)cc2c1NCCCN1CCOCC1` [SJ000173725] gave a TR-FRET signal under setting [2] of 6.494.

In turn, `CCOC(=O)c1cnc2c(C)cc(Cl)cc2c1NCCCN1CCOCC1` [SJ000174094] had a TR-FRET signal under setting [2] of −10.52.

With `CCOC(=O)c1cnc2c(Cl)cc(Cl)cc2c1NCCN1CCOCC1` [SJ000175864], the TR-FRET signal under setting [1] is recorded as −13.06.

Under setting [2], `CCOC(=O)c1cnc2c(Cl)cc(Cl)cc2c1NCCCN1CCOCC1` [SJ000176476] had a TR-FRET signal of −2.118.

Under setting [2], `CCOC(=O)c1cnc2ccc(Br)cc2c1NCCCN1CCOCC1` [SJ000176507] gave a TR-FRET signal of −22.

For the compound `CCOC(=O)c1ccc2ncc(C(=O)OCC)c(NCCCN3CCOCC3)c2c1` [SJ000176583], the TR-FRET signal under setting [2] is given as 11.26.

The compound `CCOC(=O)c1cnc2c(OC)cccc2c1NCCCN1CCOCC1` [SJ000180455] returned a TR-FRET signal under setting [2] of 3.635.

Under setting [1], `CCOC(=O)c1cnc2c(C(=O)OC)cccc2c1NCCN1CCOCC1` [SJ000184799] returned a TR-FRET signal of 4.043.

Take `CCOC(=O)c1cnc2c(CC)cccc2c1NCCCN1CCOCC1` [SJ000185196]: the TR-FRET signal under setting [2] is reported as −4.499.

Consider `CCOC(=O)c1cnc2ccc(Cl)cc2c1N1CCN(C)CC1` [SJ000187322], for which the TR-FRET signal under setting [1] is reported as −0.9277.

Consider `Cc1ccc(S(=O)(=O)N2CCN(c3ccnc4cc(Cl)ccc34)CC2)cc1` [SJ000192519], for which, under setting [1], the TR-FRET signal is given as −38.7.

For `CC(=O)Nc1ccc(S(=O)(=O)N2CCN(c3ccnc4cc(Cl)ccc34)CC2)cc1` [SJ000193862], the TR-FRET signal under setting [1] is listed as −16.19.

Turning to `COc1ccc(S(=O)(=O)N2CCN(c3ccnc4cc(Cl)ccc34)CC2)cc1` [SJ000199955], under setting [1], the TR-FRET signal was −32.07.

`O=S(=O)(c1ccc(Br)cc1)N1CCN(c2ccnc3cc(Cl)ccc23)CC1` [SJ000201754] gave a TR-FRET signal under setting [1] of −16.75.

Take `O=S(=O)(c1ccc(F)cc1)N1CCN(c2ccnc3cc(Cl)ccc23)CC1` [SJ000203833]: the TR-FRET signal under setting [1] was −50.64.

Take `O=S(=O)(c1ccc(Cl)cc1)N1CCN(c2ccnc3cc(Cl)ccc23)CC1` [SJ000204656]: the TR-FRET signal under setting [1] is given as −34.39.

Under setting [1], `C=CCOCC(O)CN1CCN(c2cc(C)nc3ccccc23)CC1` (centres unmarked) [SJ000227652] returned a TR-FRET signal of −0.207.

Under setting [1], `Cc1cc(N2CCN(CC(O)CO)CC2)c2ccccc2n1` (centres unmarked) [SJ000227653] returned a TR-FRET signal of −4.954.

For the compound `Cc1cc(N2CCN(CC(O)COCC(C)C)CC2)c2ccccc2n1` (centres unmarked) [SJ000227654], the TR-FRET signal under setting [1] is −3.251.

On to `C#CCOCC(O)CN1CCN(c2cc(C)nc3ccccc23)CC1` (centres unmarked) [SJ000227655], for which the TR-FRET signal under setting [1] was 6.55.

Take `C=CCOCC(O)CN1CCN(c2cc(C(F)(F)F)nc3ccccc23)CC1` (centres unmarked) [SJ000228017]: under setting [1], the TR-FRET signal is on record as −2.128.

Under setting [1], `C#CCOCC(O)CN1CCN(c2cc(C(F)(F)F)nc3ccccc23)CC1` (centres unmarked) [SJ000228018] yielded a TR-FRET signal of −9.516.

The compound `O=S(=O)(c1ccccc1)c1cnc2ccc(Cl)cc2c1N1CCN(Cc2ccccc2)CC1` [SJ000247242] yielded a TR-FRET signal under setting [1] of −30.28.

For `CCOc1ccc2ncc(C(=O)c3ccc(OC)cc3)c(N3CCN(CC)CC3)c2c1` [SJ000247243], the TR-FRET signal under setting [1] was −9.084.

On to `COc1ccc2ncc(C(=O)c3ccccc3)c(N3CCN(C)CC3)c2c1` [SJ000247245], for which, under setting [1], the TR-FRET signal is −2.393.

Under setting [1], `COc1ccc2ncc(S(=O)(=O)c3ccccc3)c(N3CCN(Cc4ccccc4)CC3)c2c1` [SJ000247248] registered a TR-FRET signal of −71.16.

The compound `CCOc1ccc2ncc(S(=O)(=O)c3ccccc3)c(N3CCN(Cc4ccccc4)CC3)c2c1` [SJ000247249] registered a TR-FRET signal under setting [1] of −15.91.

Take `CCOc1ccc2ncc(C(=O)c3ccc(C)cc3)c(N3CCN(C)CC3)c2c1` [SJ000247254]: the TR-FRET signal under setting [1] is given as −10.61.

With `Cc1ccc2ncc(S(=O)(=O)c3ccccc3)c(N3CCN(Cc4ccccc4)CC3)c2c1` [SJ000247256], the TR-FRET signal under setting [1] is 2.673.

As for `O=S(=O)(c1ccccc1)c1cnc2ccc(F)cc2c1N1CCN(Cc2ccccc2)CC1` [SJ000247257], the TR-FRET signal under setting [1] is on record as −62.28.

For the compound `Cc1ccc(S(=O)(=O)c2cnc3ccccc3c2N2CCN(C)CC2)cc1` [SJ000247268], under setting [1], the TR-FRET signal is listed as −13.59.

The compound `CCOc1ccc2ncc(C(=O)c3ccc(OC)cc3)c(N3CCN(C)CC3)c2c1` [SJ000247277] showed a TR-FRET signal under setting [1] of −18.95.

The compound `CCc1ccc2ncc(C(=O)c3ccccc3)c(N3CCN(CC)CC3)c2c1` [SJ000247281] registered a TR-FRET signal under setting [1] of −2.261.

As to `CCN1CCN(c2c(C(=O)c3ccc(C)cc3)cnc3ccc(OC)cc23)CC1` [SJ000247282], the TR-FRET signal under setting [1] was found to be 3.9.

For the compound `CCOc1ccc2ncc(C(=O)c3ccccc3)c(N3CCN(CC)CC3)c2c1` [SJ000247283], the TR-FRET signal under setting [1] was −0.2733.

Turning to `CCOc1ccc2ncc(C(=O)c3ccc(C)cc3)c(N3CCN(CC)CC3)c2c1` [SJ000247284], the TR-FRET signal under setting [1] was −14.25.

On to `CN1CCN(c2c(S(=O)(=O)c3ccc(Cl)cc3)cnc3ccccc23)CC1` [SJ000247306], for which the TR-FRET signal under setting [1] is reported as −10.14.

`CCc1ccc2ncc(S(=O)(=O)c3ccc(C)c(C)c3)c(N3CCN(C)CC3)c2c1` [SJ000247332] showed a TR-FRET signal under setting [1] of 2.973.

As for `COc1ccc2ncc(S(=O)(=O)c3ccc(C)c(C)c3)c(N3CCN(C)CC3)c2c1` [SJ000247333], the TR-FRET signal under setting [1] was −8.554.
